Results reported in US7872014B2, “Anaplastic lymphoma kinase modulators and methods of use” (Exelixis, Inc., priority 2003, dated 2011).
Where a name gives a salt, the structure may show the parent alone.

What follows are molecules tested against T1, ALK (baculovirus expressed human ALK kinase domain F1098-K1410) (Homo sapiens, UniProt Q9UM73) (assay: Luciferase-Coupled Chemiluminescent Kinase assay (LCCA), ALK biochemical activity). Settings: inhibition of ALK; mean values; 1 μM ATP, 4 μM poly-AEKY, 12 nM ALK, 2 hours ambient temperature.
T1 construct: baculovirus expressed human ALK kinase domain F1098-K1410; made in house
Description: ALK biochemical activity was assessed using a Luciferase-Coupled Chemiluminescent Kinase assay (LCCA) format in which kinase activity was measured as the percent ATP remaining following the kinase reaction. ATP remaining after the kinase reaction was detected by luciferase-luciferin-coupled chemiluminescence.
The reaction was initiated by mixing test compounds, 1 μM ATP, 4 μM poly-AEKY and 12 nM ALK (baculovirus expressed human ALK kinase domain F1098-K1410) in a 20 μL assay buffer ([…] pH 7.5, 10 mM MgCl2, 0.02% Triton X-100, 100 mM DTT, 2 mM MnCl2). The mixture was incubated at ambient temperature for 2 hours after which 20 μL luciferase-luciferin mix was added and the chemiluminescent signal read using a Wallac Victor^2 reader. The luciferase-luciferin mix consists of 50 mM HEPES, pH 7.8, 8.5 μg/mL oxalic acid (pH 7.8), 5 (or 50) mM DTT, 0.4% Triton X-100, 0.25 mg/mL coenzyme A, 63 μM AMP, 28 μg/mL luciferin and 40,000 units of light/mL luciferase.
Consumption of ATP by ALK can thus be quantified and utilized as a measure of inhibition of ALK activity by compounds described herein. By employing serial dilutions of compounds to be tested, the ability of test compounds to inhibit ALK activity can be determined.

T1 sequence (Q9UM73 1098-1410): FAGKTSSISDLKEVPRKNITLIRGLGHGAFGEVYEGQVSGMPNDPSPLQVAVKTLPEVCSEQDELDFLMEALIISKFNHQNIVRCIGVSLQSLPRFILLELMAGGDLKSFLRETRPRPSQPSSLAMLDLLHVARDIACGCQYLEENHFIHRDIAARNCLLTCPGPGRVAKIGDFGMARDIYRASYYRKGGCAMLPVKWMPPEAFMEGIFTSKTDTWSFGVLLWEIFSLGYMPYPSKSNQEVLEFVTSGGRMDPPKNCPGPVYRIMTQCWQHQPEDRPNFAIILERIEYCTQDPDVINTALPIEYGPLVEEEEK

First: COc1cc2c(-c3ccc(O)cc3)nc3[nH]nc(Cc4cccc(C)c4)c3c2cc1OC [Example 14, hydrochloride]
Second: COc1cc2c(-c3ccc(O)cc3)nc3[nH]nc(C)c3c2cc1OC [Example 15, trifluoroacetate]
The IC50 of the first is higher: 0.1 to 0.999 µM for the first, at most 0.099 µM for the second.

`COc1cc2c(c(-c3ccc(O)cc3)nc3[nH]nc(Cc4ccccc4)c32)c(OC)c1OC` [Example 24, 4-[6,7,8-tris(methyloxy)-1-(phenylmethyl)-3H-pyrazolo[3,4-c]isoquinolin-5-yl]phenol] and `COc1cc2c(c(-c3ccc(O)cc3)nc3[nH]nc(C)c32)c(OC)c1OC` [Example 25, 4-[1-methyl-6,7,8-tris(methyloxy)-3H-pyrazolo[3,4-c]isoquinolin-5-yl]phenol] cannot be ordered by IC50: at most 0.099 µM for the first, at most 0.099 µM for the second.

Compared with `COc1ccc2c(-c3ccc(O)cc3)nc3[nH]nc(Cc4ccccc4)c3c2c1` [Example 26, 4-[8-(methyloxy)-1-(phenylmethyl)-3H-pyrazolo[3,4-c]isoquinolin-5-yl]phenol], `COc1ccc2c(-c3ccc(O)cc3)nc3[nH]nc(C)c3c2c1` [Example 36, 4-[1-methyl-8-(methyloxy)-3H-pyrazolo[3,4-c]isoquinolin-5-yl]phenol] is lower in IC50: 0.1 to 0.999 µM for the first, at most 0.099 µM for the second. The second is the more potent here.

`COc1cc2c(-c3ccc(O)cc3)nc3[nH]nc(C(F)(F)F)c3c2cc1OC` [Example 27, 4-[7,8-bis(methyloxy)-1-(trifluoromethyl)-3H-pyrazolo[3,4-c]isoquinolin-5-yl]phenol] and `COc1cc2c(-c3ccc(O)cc3)nc3[nH]nc(C(C)C)c3c2cc1OC` [Example 28, 4-[1-(1-methylethyl)-7,8-bis(methyloxy)-3H-pyrazolo[3,4-c]isoquinolin-5-yl]phenol] fall in the same range of IC50: 0.1 to 0.999 µM for the first, 0.1 to 0.999 µM for the second.

`COc1cc2c(-c3ccc(O)cc3)nc3[nH]ncc3c2cc1OC` [Example 29, 4-[7,8-bis(methyloxy)-3H-pyrazolo[3,4-c]isoquinolin-5-yl]phenol] and `COc1cc(OC)c2c(-c3ccc(O)cc3)nc3[nH]ncc3c2c1` [Example 32, 4-[6,8-bis(methyloxy)-3H-pyrazolo[3,4-c]isoquinolin-5-yl]phenol] fall in the same range of IC50: 0.1 to 0.999 µM for the first, 0.1 to 0.999 µM for the second.

`COc1cc(OC)c2c(-c3ccc(O)cc3)nc3[nH]nc(C)c3c2c1` [Example 31, 4-[1-methyl-6,8-bis(methyloxy)-3H-pyrazolo[3,4-c]isoquinolin-5-yl]phenol] and `COc1cc2c(cc1C)c(-c1ccc(O)cc1)nc1[nH]nc(C)c12` [Example 66, 4-[1,7-dimethyl-8-(methyloxy)-3H-pyrazolo[3,4-c]isoquinolin-5-yl]phenol] cannot be ordered by IC50: at most 0.099 µM for the first, at most 0.099 µM for the second.

`COc1cc2c(c(-c3ccc(O)cc3)nc3[nH]ncc32)c(OC)c1OC` [Example 34, 4-[6,7,8-tris(methyloxy)-3H-pyrazolo[3,4-c]isoquinolin-5-yl]phenol] and `COc1cc2c(-c3ccc(O)cc3)nc3[nH]nc(C)c3c2c(OC)c1OC` [Example 35, 4-[1-methyl-7,8,9-tris(methyloxy)-3H-pyrazolo[3,4-c]isoquinolin-5-yl]phenol] cannot be ordered by IC50: at most 0.099 µM for the first, at most 0.099 µM for the second.

`COc1cc2c(-c3ccc(O)c(C)c3)nc3[nH]nc(C)c3c2cc1OC` [Example 37, 2-methyl-4-[1-methyl-7,8-bis(methyloxy)-3H-pyrazolo[3,4-c]isoquinolin-5-yl]phenol] and `COc1cc2c(-c3ccc(O)c(Cl)c3)nc3[nH]nc(C)c3c2cc1OC` [Example 41, 2-chloro-4-[1-methyl-7,8-bis(methyloxy)-3H-pyrazolo[3,4-c]isoquinolin-5-yl]phenol] cannot be ordered by IC50: at most 0.099 µM for the first, at most 0.099 µM for the second.

`COc1cc(-c2nc3[nH]nc(C)c3c3cc(OC)c(OC)cc23)ccc1O` [Example 38, 4-[1-methyl-7,8-bis(methyloxy)-3H-pyrazolo[3,4-c]isoquinolin-5-yl]-2-(methyloxy)phenol] and `CCOc1cc(-c2nc3[nH]nc(C)c3c3cc(OC)c(OC)cc23)ccc1O` [Example 40, 2-(ethyloxy)-4-[1-methyl-7,8-bis(methyloxy)-3H-pyrazolo[3,4-c]isoquinolin-5-yl]phenol] fall in the same range of IC50: 0.1 to 0.999 µM for the first, 0.1 to 0.999 µM for the second.

First: COc1cc2c(cc1OCCN1CCOCC1)c(-c1ccc(O)cc1)nc1[nH]nc(C)c12 [Example 39, 4-{1-methyl-8-(methyloxy)-7-[(2-morpholin-4-ylethyl)oxy]-3H-pyrazolo[3,4-c]isoquinolin-5-yl}phenol]
Second: COc1cc2c(-c3ccc(O)cc3)nc3[nH]nc(C)c3c2cc1OCC1CCN(C)CC1 [Example 65, 4-(1-methyl-7-(methyloxy)-8-{[(1-methylpiperidin-4-yl)methyl]oxy}-3H-pyrazolo[3,4-c]isoquinolin-5-yl)phenol]
The IC50 of the first is higher: 0.1 to 0.999 µM for the first, at most 0.099 µM for the second.

First: COc1cc2c(-c3ccc(O)c(F)c3)nc3[nH]nc(C)c3c2cc1OC [Example 42, 2-fluoro-4-[1-methyl-7,8-bis(methyloxy)-3H-pyrazolo[3,4-c]isoquinolin-5-yl]phenol]
Second: COc1cc2c(-c3ccc(O)c(Br)c3)nc3[nH]nc(C)c3c2cc1OC [Example 44, 2-bromo-4-[1-methyl-7,8-bis(methyloxy)-3H-pyrazolo[3,4-c]isoquinolin-5-yl]phenol]
The IC50 of the first is higher: 0.1 to 0.999 µM for the first, at most 0.099 µM for the second.

`COc1cc2c(-c3ccc(O)cc3)nc3[nH]nc(CN4CCCC4=O)c3c2cc1OC` [Example 45, 1-{[5-(4-hydroxyphenyl)-7,8-bis(methyloxy)-3H-pyrazolo[3,4-c]isoquinolin-1-yl]methyl}pyrrolidin-2-one] and `CCOc1cc2c(cc1OC)c(-c1ccc(O)cc1)nc1[nH]nc(C)c12` [Example 58, 4-[8-(ethyloxy)-1-methyl-7-(methyloxy)-3H-pyrazolo[3,4-c]isoquinolin-5-yl]phenol] fall in the same range of IC50: 0.1 to 0.999 µM for the first, 0.1 to 0.999 µM for the second.

Compared with `COc1cc2c(-c3ccc(O)cc3)nc3[nH]nc(C)c3c2cc1OCC1CCNCC1` [Example 54, 4-{1-methyl-7-(methyloxy)-8-[(piperidin-4-ylmethyl)oxy]-3H-pyrazolo[3,4-c]isoquinolin-5-yl}phenol], `COc1cc2c(cc1OCC1CCNCC1)c(-c1ccc(O)cc1)nc1[nH]nc(C)c12` [Example 55, 4-{1-methyl-8-(methyloxy)-7-[(piperidin-4-ylmethyl)oxy]-3H-pyrazolo[3,4-c]isoquinolin-5-yl}phenol] is higher in IC50: at most 0.099 µM for the first, 0.1 to 0.999 µM for the second. The first is the more potent here.

`COc1ccc2c(-c3ccc(O)cc3)nc3[nH]nc(C)c3c2c1OC` [Example 59, 4-[1-methyl-8,9-bis(methyloxy)-3H-pyrazolo[3,4-c]isoquinolin-5-yl]phenol] and `COc1ccc2c(-c3ccc(O)cc3)nc3[nH]nc(C)c3c2c1C` [Example 78, 4-[1,9-dimethyl-8-(methyloxy)-3H-pyrazolo[3,4-c]isoquinolin-5-yl]phenol] cannot be ordered by IC50: at most 0.099 µM for the first, at most 0.099 µM for the second.

`CCOc1cc2c(-c3ccc(O)cc3)nc3[nH]nc(C)c3c2cc1OC` [Example 60, 4-[7-(ethyloxy)-1-methyl-8-(methyloxy)-3H-pyrazolo[3,4-c]isoquinolin-5-yl]phenol] and `CCc1cc(-c2nc3[nH]nc(C)c3c3cc(OC)c(OC)cc23)ccc1O` [Example 63, 2-ethyl-4-[1-methyl-7,8-bis(methyloxy)-3H-pyrazolo[3,4-c]isoquinolin-5-yl]phenol] fall in the same range of IC50: 0.1 to 0.999 µM for the first, 0.1 to 0.999 µM for the second.

`COc1ccc2c(-c3ccc(O)cc3)nc3[nH]nc(C)c3c2c1OCC1CCNCC1` [Example 61, 4-{1-methyl-8-(methyloxy)-9-[(piperidin-4-ylmethyl)oxy]-3H-pyrazolo[3,4-c]isoquinolin-5-yl}phenol] and `COc1ccc2c(-c3ccc(O)cc3)nc3[nH]nc(C)c3c2c1OCC1CCN(C)CC1` [Example 64, 4-(1-methyl-8-(methyloxy)-9-{[(1-methylpiperidin-4-yl)methyl]oxy}-3H-pyrazolo[3,4-c]isoquinolin-5-yl)phenol] cannot be ordered by IC50: at most 0.099 µM for the first, at most 0.099 µM for the second.

Compared with `COc1cc2c(-c3ccc(O)cc3)nc3[nH]nc(C4CCN(C(=O)OC(C)(C)C)CC4)c3c2cc1OC` [Example 67, 1,1-dimethylethyl 4-[5-(4-hydroxyphenyl)-7,8-bis(methyloxy)-3H-pyrazolo[3,4-c]isoquinolin-1-yl]piperidine-1-carboxylate], `COc1cc2c(-c3ccc(O)c(OC(F)F)c3)nc3[nH]nc(C)c3c2cc1OC` [Example 76, 2-[(difluoromethyl)oxy]-4-[1-methyl-7,8-bis(methyloxy)-3H-pyrazolo[3,4-c]isoquinolin-5-yl]phenol] is higher in IC50: 0.1 to 0.999 µM for the first, 1 to 2 µM for the second. The first is the more potent here.

`COc1ccc2c(-c3ccc(O)c(Cl)c3)nc3[nH]nc(C)c3c2c1OC` [Example 69, 2-chloro-4-[1-methyl-8,9-bis(methyloxy)-3H-pyrazolo[3,4-c]isoquinolin-5-yl]phenol] and `COc1ccc2c(-c3ccc(O)c(F)c3)nc3[nH]nc(C)c3c2c1OC` [Example 70, 2-fluoro-4-[1-methyl-8,9-bis(methyloxy)-3H-pyrazolo[3,4-c]isoquinolin-5-yl]phenol] cannot be ordered by IC50: at most 0.099 µM for the first, at most 0.099 µM for the second.

`COc1ccc2c(-c3ccc(O)c(C)c3)nc3[nH]nc(C)c3c2c1OC` [Example 71, 2-methyl-4-[1-methyl-8,9-bis(methyloxy)-3H-pyrazolo[3,4-c]isoquinolin-5-yl]phenol] and `COc1ccc2c(-c3ccc(O)c(Br)c3)nc3[nH]nc(C)c3c2c1OC` [Example 72, 2-bromo-4-[1-methyl-8,9-bis(methyloxy)-3H-pyrazolo[3,4-c]isoquinolin-5-yl]phenol] cannot be ordered by IC50: at most 0.099 µM for the first, at most 0.099 µM for the second.
